# Data from patent publication US11702402B2, “Small molecules that block proteasome-associated ubiquitin receptor RPN13 function and uses thereof” (DANA-FARBER CANCER INSTITUTE, INC., priority 2018, dated 2023).
# Columns and labels:
# MM.1S cells [1] = settings: human, 48 h
# Procedure: FIGS. 4A and 4B show multiple myeloma 1S (MM.1S) cells treated with RA190, WL40, and WL44 at the indicated concentrations for 24 hours. Wst-1 assay was used to test cell viability.
# In FIG. 13B, multiple myeloma cells (MM.1S) were treated with RA190 or compound JQRA at the indicated concentrations for 72 hours, and the percentage of viable cells was measured.
# Purified CD138^+ patient MM cells, which were treated with DMSO control or WL40 at indicated concentrations for 48 hours, followed by assessment for cell viability using CellTiter-Glo assay (mean±SD of triplicate cultures; p<0.001). […] Normal PBMCs from healthy donors were treated with DMSO control or WL40 at indicated concentrations for 48 hours, and then analyzed for cell viability using CellTiter-Glo assay (mean±SD of quadruplicate cultures). […] MM.1S cells were cultured with or without patient BMSCs in the presence or absence of WL40 for 48 hours, and cell proliferation was measured by WST assay (mean±SD; n=3; p<0.0001). […] MM.1S cells were cultured with or without patient pDCs in the presence or absence of WL40 for 48 hours, and cell proliferation was measured by WST assay (mean±SD; n=3; p<0.0001).
# CD138+ patient MM cells = test: Viability of CD138+ patient MM cells (CellTiter-Glo); format: cell-based; settings: Homo sapiens, CD138+ patient MM cells (patients 1-4), 48 hours, read-out: cell viability IC50 range
# Procedure: The IC50 of WL40 for cell lines is shown.
# Human MM cell lines MM.1S, MM.1R, RPMI-8226, ANBL6.WT, ANBL6.BR, DOX40, INA6, and normal PBMCs were cultured in RPMI1640 complete medium. Informed consent was obtained from ah patients in accordance with the Helsinki protocol. MM CD138-positive cells, bone marrow stromal cells (BMSCs), and plasmacytoid dendritic cells (pDCs) from MM patients were isolated and cultured as described previously.^32
# [2] = biological target: Recombinant 20S proteasome (Homo sapiens, UniProt P28072+P28074+Q99436); test: Recombinant 20S proteasome activity assay; format: biochemical; settings: purified recombinant 20S proteasome; 30 minutes
# Procedure: MM.1S cells, which were treated with DMSO control, bortezomib, or WL40 at indicated concentration for 3 hours; protein lysates were analyzed for different proteasome activities (CT-L, chymotrypsin-like; T-L, trypsin-like; C-L, caspase-like). FIG. 20B is a bar graph showing percent proteasome activity after normalization with DMSO control (mean±SD; n=3). Recombinant 20S proteasome was incubated with DMSO, bortezomib, or WL40 for 30 minutes, followed by assessment of the above-noted proteasome activities. FIG. 20C MM.1S cells were pretreated with exemplary proteasome inhibitor MG132 (10 μM) for 1 hour, followed by addition of WL40 (400 nM) for 8 hours. […] Total protein lysates were subjected to immunoblots for Rpn13 and α-tubulin. […] FIG. 20E ANBL6.BR cells were treated with WL40 (400 nM) or RA190 (500 nM) for 16 hours; protein lysates were subjected to immunoblot analysis using anti-Rpn13 or anti-β-actin Abs.
# To eliminate the potential impact of WL40 on proteasome function, the effect of WL40 on proteasome activities was assessed.
# MM.1S cells [3] = test: Annexin V/PI apoptosis assay in MM.1S cells; format: cell-based, Human; settings: 200 nM, 16 hours
# Procedure: (§1) FIGS. 22A to 22F show the mechanisms of WL40-induced MM cell death. […] MM.1S cells were treated with DMSO control or WL40 (200 nM) for 16 hours, and then analyzed for apoptosis using Annexin V/PI double staining assay (mean±SD; n=3; p<0.001). FIG. 22B is an immunoblot of MM.1S and ANBL6.BR cells, which were treated with DMSO control or WL40 (200 nM for MM.1S; 1 μM for ANBL6.BR) for 16 hours; protein lysates were then subjected to the immunoblotting using antibodies against poly ADP ribose polymerase (PARP), caspase-3, caspase-7, caspase-8, caspase-9, or β-actin. FL, full length; CF, cleaved fragment. FIG. 22C is a bar graph measuring enzymatic activity. MM.1S cells were treated with DMSO control or WL40 (200 nM) for 12 hours, followed by the measurement of caspase-3, caspase-8, or caspase-9 enzymatic activity (mean±SD; n=3; p<0.0001). FIG. 22D is an immunoblot of MM.1S and ANBL6.BR cells, which were treated with DMSO control or WL40 (200 nM for MM.1S; 1 μM for ANBL6.BR) for 16 hours; protein lysates were then subjected to the immunoblotting using specific antibodies against Cyclin-B1, Cell Division Cycle 25C (CDC25C), Cell Division Cycle 2 (CDCl2), or β-actin. […]
# [4] = system: PARP, caspase-3, caspase-7, caspase-8, caspase-9; test: PARP/caspase immunoblot and caspase enzymatic activity; format: cell-based, Human
# Procedure: as §1
smiles,measurement,setting,value
O=C1CCC(N2C(=O)c3cccc(NCCOCCOCCOCCC(=O)N[C@@H](Cc4ccccc4)C(=O)N4C/C(=C\c5ccc(Cl)c(Cl)c5)C(=O)/C(=C/c5ccc(Cl)c(Cl)c5)C4)c3C2=O)C(=O)N1 (stereo partly drawn) [WL40],cytotoxicity (cell viability),MM.1S cells [1],more cytotoxic than the parental Rpn13 inhibitor RA190
same,IC50,CD138+ patient MM cells,95 to 170 nM
same,"20S proteasomal activities (chymotrypsin-like, trypsin-like, caspase-like)",[2],does not inhibit 20S proteasomal activities
same,apoptosis (Annexin V/PI),MM.1S cells [3],increase in early- (Annexin V^+/PI^−) and late-stage (Annexin V^+/PI^+) apoptosis
same,PARP cleavage (immunoblot),"[4]; 200 nM for MM.1S, 1 μM for ANBL6.BR, 16 hours",proteolytic cleavage of Poly (ADP) ribose polymerase (PARP)
same,caspase activation,"[4]; MM.1S 200 nM, immunoblot 16 hours, enzymatic activity 12 hours","activation of caspase-3, caspase-7, caspase-8 and caspase-9"
